Where “and” joins values, the source holds several entries; their conditions need not be identical. Equal entries are not always repeated. Structures can show the parent of a compound that is named as a salt. Where two headings read alike, the source gives them in different places.
Experiments:
hα2B receptor = molecular target: T1, hα2B receptor (Homo sapiens, UniProt P18089); experiment: Radioligand binding experiment for α2B-adrenergic receptor ([3H]-raulwolscine); conditions: CHO cell membranes with human α2B receptor, [3H]raulwolscine 1 nM
T1 construct: expressed in transfected cells
T1 sequence (P18089 1-450): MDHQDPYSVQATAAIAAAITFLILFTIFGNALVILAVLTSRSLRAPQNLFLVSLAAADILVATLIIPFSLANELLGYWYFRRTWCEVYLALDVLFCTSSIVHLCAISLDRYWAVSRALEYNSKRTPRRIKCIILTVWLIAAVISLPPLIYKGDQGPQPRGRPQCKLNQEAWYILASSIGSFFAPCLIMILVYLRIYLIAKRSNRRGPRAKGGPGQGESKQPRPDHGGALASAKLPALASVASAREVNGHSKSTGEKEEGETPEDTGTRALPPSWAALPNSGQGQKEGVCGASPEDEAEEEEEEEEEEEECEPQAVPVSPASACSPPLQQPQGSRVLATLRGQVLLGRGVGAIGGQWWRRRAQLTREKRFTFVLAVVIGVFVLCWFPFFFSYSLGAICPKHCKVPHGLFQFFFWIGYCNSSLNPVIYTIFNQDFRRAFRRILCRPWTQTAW
Description: (§1) In general, a low concentration of a radioligand with a high binding affinity for a particular receptor or transporter is incubated with a sample of a tissue preparation enriched in a particular receptor or transporter or with a preparation of cells expressing cloned human receptors in a buffered medium. During the incubation, the radioligand binds to the receptor or transporter. When equilibrium of binding is reached, the receptor bound radioactivity is separated from the non-bound radioactivity, and the receptor- or transporter-bound activity is counted. The interaction of the test compounds with the receptor is assessed in competition binding experiments. Various concentrations of the test compound are added to the incubation mixture containing the receptor- or transporter preparation and the radioligand. The test compound in proportion to its binding affinity and its concentration inhibits binding of the radioligand. The radioligand used for hα2A, hα2B and hα2C receptor binding was [^3H]-raulwolscine and for the h5-HT transporter was [^3H]paroxetine. CHO cells, stabile transfected with human adrenergic-α2A-, -α2B or α2C receptor cDNA, were cultured in Dulbecco's Modified Eagle's Medium (DMEM)/Nutrient mixture Ham's F12 (ratio 1:1)(Gibco, Gent-Belgium) supplemented with 10% heat inactivated fetal calf serum (Life Technologies, Merelbeke-Belgium) and antibiotics (100 IU/ml penicillin G, 100 μg/ml streptomycin sulphate, 110 μg/ml pyruvic acid and 100 μg/ml L-glutamine). One day before collection, cells were induced with 5 mM sodiumbutyrate. Upon 80-90% of confluence, cells were scraped in phosphate buffered saline without Ca^2+ and Mg^2+ and collected by centrifugation at 1500×g for 10 min. The cells were homogenised in Tris-HCl 50 mM using an Ultraturrax homogenizer and centrifuged for 10 min at 23,500×g. The pellet was washed once by resuspension and rehomogenization and the final pellet was resuspended in Tris-HCl, divided in 1 ml aliquots and stored at −70° C. Membranes were thawed and re-homogenized in incubation buffer (glycylglycine 25 mM, pH 8.0). In a total volume of 500 μl, 2-10 μg protein was incubated with [^3H]raulwolscine (NET-722) (New England Nuclear, USA) (1 nM final concentration) with or without competitor for 60 min at 25° C. followed by rapid filtration over GF/B filter using a Filtermate196 harvester (Packard, Meriden, Conn.). Filters were rinsed extensively with ice-cold rinsing buffer (Tris-HCl 50 mM pH 7.4). Filter-bound radioactivity was determined by scintillation counting in a Topcount (Packard, Meriden, Conn.) and results were expressed as counts per minute (cpm). Non-specific binding was determined in the presence of 1 μM oxymetazoline for hα2A- and hα2B receptors and 1 μM spiroxatrine for hα2C receptors. Data from assays in the presence of compound were calculated as a percentage of total binding measured in the absence of test compound. Inhibition curves, plotting percent of total binding versus the log value of the concentration of the test compound, were automatically generated, and sigmoidal inhibition curves were fitted using non-linear regression. The pIC50 values of test compounds were derived from individual curves.

hα2A receptor = molecular target: T2, hα2A receptor (Homo sapiens, UniProt P08913); experiment: Radioligand binding experiment for α2A-adrenergic receptor ([3H]-raulwolscine); conditions: CHO cell membranes with human α2A receptor, [3H]raulwolscine 1 nM
T2 construct: expressed in transfected cells
T2 sequence (P08913 1-465): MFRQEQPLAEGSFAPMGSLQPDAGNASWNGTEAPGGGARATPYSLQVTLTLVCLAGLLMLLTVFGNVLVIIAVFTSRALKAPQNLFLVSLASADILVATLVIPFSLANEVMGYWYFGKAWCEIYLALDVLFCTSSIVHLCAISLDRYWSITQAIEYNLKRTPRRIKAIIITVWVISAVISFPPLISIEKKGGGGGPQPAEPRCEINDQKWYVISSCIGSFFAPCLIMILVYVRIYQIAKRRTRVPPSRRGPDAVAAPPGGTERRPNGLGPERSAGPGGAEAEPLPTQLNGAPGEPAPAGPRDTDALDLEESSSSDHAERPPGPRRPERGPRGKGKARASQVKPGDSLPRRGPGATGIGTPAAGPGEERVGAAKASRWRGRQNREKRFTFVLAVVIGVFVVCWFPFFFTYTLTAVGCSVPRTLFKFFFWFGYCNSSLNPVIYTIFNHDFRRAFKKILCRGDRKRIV
Description: as §1

h5-HT transporter = molecular target: T3, h5-HT transporter (Homo sapiens, UniProt P31645); experiment: Radioligand binding experiment for 5-HT transporter ([3H]paroxetine); conditions: human platelet membranes, [3H]paroxetine 0.5 nM
T3 construct: Human platelet membranes (Oceanix Biosciences Corporation, Hanover, Md., USA) were thawed; tissue Oceanix Biosciences Corporation, Hanover, Md., USA; host or cells: human platelet membranes
Description: In general, a low concentration of a radioligand with a high binding affinity for a particular receptor or transporter is incubated with a sample of a tissue preparation enriched in a particular receptor or transporter or with a preparation of cells expressing cloned human receptors in a buffered medium. During the incubation, the radioligand binds to the receptor or transporter. When equilibrium of binding is reached, the receptor bound radioactivity is separated from the non-bound radioactivity, and the receptor- or transporter-bound activity is counted. The interaction of the test compounds with the receptor is assessed in competition binding experiments. Various concentrations of the test compound are added to the incubation mixture containing the receptor- or transporter preparation and the radioligand. The test compound in proportion to its binding affinity and its concentration inhibits binding of the radioligand. The radioligand used for hα2A, hα2B and hα2C receptor binding was [^3H]-raulwolscine and for the h5-HT transporter was [^3H]paroxetine. Human platelet membranes (Oceanix Biosciences Corporation, Hanover, Md., USA) were thawed, diluted in buffer (Tris-HCl 50 mM, 120 mM NaCl and 5 mM KCl) and quickly (max 3 s) homogenised with an Ultraturrax homogenizer. In a total volume of 250 μL, 50-100 μg protein was incubated with [^3H]paroxetine (NET-869) (New England Nuclear, USA) (0.5 nM final concentration) with or without competitor for 60 min at 25 ° C. Incubation was stopped by rapid filtration of the incubation mixture over GF/B filters, pre-wetted with 0.1% polyethyleneamine, using a Filtermate196 harvester (Packard, Meriden, Conn.). Filters were rinsed extensively with ice-cold buffer and radioactivity on the filters was counted in a Topcount liquid scintillation counter (Packard, Meriden, Conn.). Data were expressed as cpm. Imipramine (at 1 μM final concentration) was used to determine the non-specific binding. Data from assays in the presence of compound were calculated as a percentage of total binding measured in the absence of test compound. Inhibition curves, plotting percent of total binding versus the log value of the concentration of the test compound, were automatically generated, and sigmoidal inhibition curves were fitted using non-linear regression. The pIC50 values of test compounds were derived from individual curves.

hα2C receptor = molecular target: T4, hα2C receptor (Homo sapiens, UniProt P18825); experiment: Radioligand binding experiment for α2C-adrenergic receptor ([3H]-raulwolscine)
T4 construct: expressed in transfected cells
T4 sequence (P18825 1-462): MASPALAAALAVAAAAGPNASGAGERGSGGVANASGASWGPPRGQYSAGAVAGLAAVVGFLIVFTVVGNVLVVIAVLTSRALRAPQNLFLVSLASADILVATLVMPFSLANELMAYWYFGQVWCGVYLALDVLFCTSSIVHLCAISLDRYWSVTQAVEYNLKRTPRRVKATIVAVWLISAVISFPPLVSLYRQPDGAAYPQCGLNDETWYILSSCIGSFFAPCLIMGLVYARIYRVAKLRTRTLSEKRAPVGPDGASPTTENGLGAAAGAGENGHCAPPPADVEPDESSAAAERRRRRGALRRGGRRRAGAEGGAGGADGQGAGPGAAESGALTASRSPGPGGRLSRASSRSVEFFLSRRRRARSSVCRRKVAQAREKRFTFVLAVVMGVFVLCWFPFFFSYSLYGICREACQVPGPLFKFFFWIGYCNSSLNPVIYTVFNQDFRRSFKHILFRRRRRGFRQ
Description: as §1

[1] = CHO cell membranes with human α2C receptor, [3H]raulwolscine 1 nM
[2] = read-out: hα2A (pIC50) (converted)
[3] = read-out: 5-HTT (pIC50) (converted)
[4] = CHO cell membranes with human α2C receptor, [3H]raulwolscine 1 nM, read-out: hα2C (pIC50) (converted)

T3 sequence (P31645 whole entry): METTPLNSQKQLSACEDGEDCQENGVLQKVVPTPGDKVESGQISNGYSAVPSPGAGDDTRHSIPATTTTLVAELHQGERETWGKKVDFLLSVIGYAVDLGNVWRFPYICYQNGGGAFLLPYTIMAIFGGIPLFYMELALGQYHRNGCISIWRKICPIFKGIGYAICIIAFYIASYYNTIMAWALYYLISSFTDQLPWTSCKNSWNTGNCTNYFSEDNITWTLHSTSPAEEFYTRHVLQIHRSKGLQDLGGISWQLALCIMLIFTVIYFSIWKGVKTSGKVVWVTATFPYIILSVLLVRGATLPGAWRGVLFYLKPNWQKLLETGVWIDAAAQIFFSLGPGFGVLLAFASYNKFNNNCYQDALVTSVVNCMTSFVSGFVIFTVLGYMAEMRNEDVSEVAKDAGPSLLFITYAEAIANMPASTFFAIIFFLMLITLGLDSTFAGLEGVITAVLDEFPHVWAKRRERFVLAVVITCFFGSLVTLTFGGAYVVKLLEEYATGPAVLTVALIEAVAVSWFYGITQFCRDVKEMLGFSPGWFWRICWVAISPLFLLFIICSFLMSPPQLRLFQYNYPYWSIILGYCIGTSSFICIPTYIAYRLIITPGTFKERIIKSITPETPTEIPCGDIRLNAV

Structure (SMILES) | hα2A (pIC50) (hα2A receptor) | 5-HTT (pIC50) (h5-HT transporter) | hα2C (pIC50) (hα2C receptor; [1]) | also measured
C/C(=C\c1cccc(F)c1)CN1CCN(CC2ON=C3c4cc5cc[nH]c5cc4OCC32)CC1 (racemic) [Compound 2] | 8.1 | 8.3 | 9.0 | hα2B (pIC50) (hα2B receptor): 8.3
C/C(=C\c1ccccc1)CN1CCN(CC2ON=C3c4cccnc4OCC32)CC1 (stereo not drawn) [Compound 22, 3-[4-(2-methyl-3-phenyl-allyl)-piperazin-1-ylmethyl]-3a,4-dihydro-3H-2,5-dioxa-1,6-diaza-cyclopenta[a]naphthalene oxalate salt] | – | – | – | IC50 (hα2A receptor; [2]): 631 nM; IC50 (h5-HT transporter; [3]): 6310 nM; IC50 (hα2C receptor; [4]): 79.4 nM
C/C(=C\c1ccc(F)cc1)CN1CCN(CC2ON=C3c4cc5cc[nH]c5cc4OCC32)CC1 (racemic) [Compound 3] | 7.8 | 8.2 | 8.7 | hα2B (pIC50) (hα2B receptor): 7.6
COCC(=O)n1ccc2cc3c(cc21)OCC1C3=NOC1CN1CCN(C/C(C)=C/c2ccccc2)CC1 (racemic) [Compound 14] | 8.5 | 8.4 | 8.9 | –
CC(=O)n1ccc2cc3c(cc21)OCC1C3=NOC1CN1CCN(C/C(C)=C/c2ccccc2)CC1 (stereo not drawn) [Compound 11, 1-{3-[4-(2-methyl-3-phenyl-allyl)-piperazin-1-ylmethyl]-3a,4-dihydro-3H-2,5-dioxa-1,7-diaza-dicyclopenta[a,g]naphthalen7-yl}-ethanone] | – | – | – | IC50 (hα2A receptor; hα2A (pIC50)): 2.51 nM; IC50 (h5-HT transporter; 5-HTT (pIC50)): 6.31 nM; IC50 (hα2C receptor): 1 nM
C/C(=C\c1cccc(F)c1)CN1CCN(CC2ON=C3c4ccncc4OCC32)CC1 (racemic) [Compound 20] | 9.2 | 7.6 | 8.8 | –
C/C(=C\c1ccccc1)CN1CCN(CC2ON=C3c4ccncc4OCC32)CC1 (stereo not drawn) [Compound 18, 3-[4-(2-methyl-3-phenyl-allyl)-piperazin-1-ylmethyl]-3a,4-dihydro-3H-2,5-dioxa-1,7-diaza-cyclopenta[a]naphthalene oxalate salt (1/1)] | – | – | – | IC50 (hα2B receptor; read-out: hα2B (pIC50) (converted)): 1.58 nM; IC50 (hα2A receptor; [2]): 1.26 nM and 1.58 nM; IC50 (h5-HT transporter; [3]): 200 nM and 31.6 nM; IC50 (hα2C receptor; [4]): 1.58 nM
COC(=O)n1ccc2cc3c(cc21)OCC1C3=NOC1CN1CCN(C/C(C)=C/c2ccccc2)CC1 (racemic) [Compound 13] | 8.4 | 7.9 | 8.4 | –
c1ccc2cc(CN3CCN(CC4ON=C5c6ccncc6OCC54)CC3)ccc2c1 (stereo not drawn) [Compound 19, 3-(4-naphthalen-2-ylmethyl-piperazin-1-ylmethyl)-3a,4-dihydro-3H-2,5-dioxa-1,7-diaza-cyclopenta[a]naphthalene oxalate salt (1/1)] | – | – | – | IC50 (hα2A receptor; [2]): 10 nM; IC50 (h5-HT transporter; [3]): 100 nM; IC50 (hα2C receptor; [4]): 39.8 nM
C/C(=C\c1ccccc1)CN1CCN(CC2ON=C3c4cc5ccn(C)c5cc4OCC32)CC1 (stereo not drawn) [Compound 7, 7-methyl-3-[4-(2-methyl-3-phenyl-allyl)-piperazin-1-ylmethyl]-3a,4-dihydro-3H,7H-2,5-dioxa-1,7-diaza-dicyclopenta[a,g]naphthlene] | – | – | – | IC50 (hα2A receptor; hα2A (pIC50)): 3.16 nM; IC50 (h5-HT transporter; 5-HTT (pIC50)): 5.01 nM; IC50 (hα2C receptor): 0.794 nM
CC(=CCN1CCN(CC2ON=C3c4cc5cc[nH]c5cc4OCC32)CC1)c1ccccc1 (racemic) [Compound 6] | 8.1 | 8.3 | 8.6 | –
Clc1ccc(CN2CCN(CC3ON=C4c5cc6cc[nH]c6cc5OCC43)CC2)cc1 (racemic) [Compound 5] | 6.7 | 7.8 | 7.4 | –
C/C(=C\c1ccccc1)CN1CCN(CC2ON=C3c4cc5ccn(C(=O)C6CC6)c5cc4OCC32)CC1 (racemic) [Compound 12] | 8.2 | 7.7 | 8.5 | –
C/C(=C\c1ccc(F)cc1)CN1CCN(CC2ON=C3c4ccncc4OCC32)CC1.O=C(O)C(=O)O (racemic) [Compound 21] | 8.2 | 7.1 | 7.8 | –

From patent US7501418B2, “Fused heterocyclic isoxazoline derivatives and their use as anti-depressants” (Janssen Pharmaceutica, N.V., priority 2002, dated 2009)
